In patent US10328065B2, “Pharmaceutical combination comprising the PI3K inhibitor alpelisib and the B-RAF inhibitor dabrafenib; the use of such combination in the treatment or prevention of cancer” (Novartis AG, priority 2015, dated 2019):
pIC50: −log10 of the molar value.

Key:
Type in all cases: cell-based
LIM2551 = test: Cell proliferation (cell count by microscopy) and HSA synergy, LIM2551; conditions: LIM2551 (BRAF, PIK3CA mutant); 72 h; 50% of cell counts relative to DMSO; tested A 13 nM-10 μM, B 1.4 nM-1 μM
Experimental: (§1) COMPOUNDS A and B were dissolved in 100% DMSO (Sigma, Catalog number D2650) at concentrations of 20 mM and stored at −20° C. until use. Compounds were arrayed in drug master plates (Greiner, Catalog number 788876) and serially diluted 3-fold (7 steps) at 2000× concentration.
(§2) Colorectal cancer cell lines used for this study were obtained, cultured and processed from commercial vendors ATCC, HSRRB, and CellBank Australia (Table 1). All cell line media were supplemented with 10% FBS (HyClone, Catalog number SH30071.03). Media for LIM2405 and LIM2551 was additionally supplemented with 0.6 μg/mL Insulin (SIGMA, Catalog number 19278), 1 μg/mL Hydrocortisone (SIGMA, Catalog number H0135), and 10 μM 1-Thioglycerol (SIGMA, Catalog number M6145).
(§3) Cell lines were cultured in 37° C. and 5% CO2 incubator and expanded in T-75 flasks. In all cases cells were thawed from frozen stocks, expanded through ≥1 passage using 1:3 dilutions, counted and assessed for viability using a ViCell counter (Beckman-Coulter) prior to plating. To split and expand cell lines, cells were dislodged from flasks using 0.25% Trypsin-EDTA (GIBCO, Catalog number 25200). All cell lines were determined to be free of mycoplasma contamination as determined by a PCR detection methodology performed at Idexx Radil (Columbia, Mo., USA) and correctly identified by detection of a panel of SNPs. […]

RKO = test: Cell proliferation (cell count by microscopy) and HSA synergy, RKO; conditions: Homo sapiens, cell line printed RXO (BRAF, PIK3CA mutant), 72 h, 50% of cell counts relative to DMSO, tested A 13 nM-10 μM, B 1.4 nM-1 μM
Experimental: as §1, §2, §3

OUMS-23 = test: Cell proliferation (cell count by microscopy) and HSA synergy, OUMS-23; conditions: OUMS-23 (BRAF mutant); 72 h; 50% of cell counts relative to DMSO; tested A 13 nM-10 μM, B 1.4 nM-1 μM
Experimental: as §1, §2, §3

LIM2405 = test: Cell proliferation (cell count by microscopy) and HSA synergy, LIM2405; conditions: LIM2405 (BRAF mutant); 72 h; 50% of cell counts relative to DMSO; tested A 13 nM-10 μM, B 1.4 nM-1 μM
Experimental: as §1, §2, §3

LS411N = test: Cell proliferation (cell count by microscopy) and HSA synergy, LS411N; conditions: Homo sapiens, LS-411N; LS411N (BRAF mutant); 72 h; 50% of cell counts relative to DMSO; tested A 13 nM-10 μM, B 1.4 nM-1 μM
Experimental: as §1, §2, §3

HT-29 = test: Cell proliferation (cell count by microscopy) and HSA synergy, HT-29; conditions: Homo sapiens; HT-29 (BRAF, PIK3CA mutant); 72 h; 50% of cell counts relative to DMSO; tested A 13 nM-10 μM, B 1.4 nM-1 μM
Experimental: as §1, §2, §3

COLO-205 = test: Cell proliferation (cell count by microscopy) and HSA synergy, COLO-205; conditions: Homo sapiens; COLO-205 (BRAF mutant); 72 h; 50% of cell counts relative to DMSO; tested A 13 nM-10 μM, B 1.4 nM-1 μM
Experimental: as §1, §2, §3

Row | pIC50 (HT-29) | pIC50 (COLO-205) | Compound | pIC50 (LIM2551) | pIC50 (RKO) | pIC50 (OUMS-23) | pIC50 (LIM2405) | pIC50 (LS411N)
1 | 5.72 | < 5.00 | Cc1nc(NC(=O)N2CCC[C@H]2C(N)=O)sc1-c1ccnc(C(C)(C)C(F)(F)F)c1 [COMPOUND A, (S)-Pyrrolidine-1,2-dicarboxylic acid 2-amide 1-({4-methyl-5-[2-(2,2,2-trifluoro-1,1-dimethyl-ethyl)-pyridin-4-yl]-thiazol-2-yl}-amide)] | 5.85 | 5.59 | < 5.00 | < 5.00 | < 5.00
2 | 7.92 | 8.00 | CC(C)(C)c1nc(-c2cccc(NS(=O)(=O)c3c(F)cccc3F)c2F)c(-c2ccnc(N)n2)s1 [COMPOUND B, N-{3-[5-(2-Amino-4-pyrimidinyl)-2-(1,1-dimethylethyl)-1,3-thiazol-4-yl]-2-fluorophenyl}-2,6-difluorobenzenesulfonamide] | 7.64 | 6.72 | < 6.00 | 8.15 | < 6.00
